Laboratory results from patent publication US20050096347A1, “Beta3-Adrenoreceptor agonists, agonist compositions and methods of using” (Molecular Design International, Inc., priority 1997, published 2005).
Like-named read-outs stand apart in the source and are kept apart here. One block for each compound: values may come before it.

What was measured:
[1] = biological target: T1, Human β3 Adrenoreceptors (Homo sapiens, UniProt P13945); test: hβ3 cAMP functional activity in CHO cells expressing human β3 adrenoreceptors (Table 8); type: cell-based; settings: for EC50: read-out: hβ3 cAMP EC50(nM) +/−SEM
T1 construct: expressed in transfected cells

[2] = biological target: T2, human β3-Adrenoreceptor (Homo sapiens, UniProt P13945); test: Radioligand competition binding, human β3 adrenoreceptor expressed in CHO cells ([125I]ICYP); settings: N = 3-9 (Table 5)
T2 construct: expressed in transfected cells

[3] = biological target: T3, human β2 Adrenoreceptor (Homo sapiens, UniProt P07550); test: Radioligand competition binding, human β2 adrenoreceptor expressed in CHO cells ([125I]ICYP); settings: for pKi ± SEM, Human β2 Adrenoreceptor CHO: [125I]ICYP as radioligand, N = 4-9; for P.R. (potency ratio), Human β2 Adrenoreceptor CHO: relative to cmpd. 1 (TMQ), PR = antilog [pKi(drug) − pKi(TMQ)]; for Ki: CHO cells (Table 8), read-out: hβ2 Binding ki
T3 construct: expressed in transfected cells

[4] = biological target: Human β1-AR (Homo sapiens, UniProt P08588); test: cAMP radioimmunoassay (cAMP-RIA), CHO cells expressing human β1-AR; type: cell-based; parameters: expressed in transfected cells; settings: percentage of maximal response of R-(−)-isoproterenol (100%)
Method: (§1) cAMP Radioimmunoassay (CAMP-RIA Assay). […] The precipitated protein was dissolved in 0.1N NaOH.

[5] = biological target: human β1 Adrenoreceptor (Homo sapiens, UniProt P08588); test: Radioligand competition binding, human β1 adrenoreceptor expressed in CHO cells ([125I]ICYP)
Method: Competitive and comparative binding experiments on β1 Adrenoreceptors, β2 Adrenoreceptors and β3-Adrenoreceptors expressed in CHO cells were performed as described previously. […] CHO cells grown to a confluence in 150-mL flasks were detached into Ham's F-12 medium after treatment with 0.05% trypsin-0.53 mM EDTA solution. The cells were then pelleted and washed three times with Tris-EDTA buffer (50 mM Tris-HCl, 150 mM NaCl, 20 mM EDTA, pH 7.4) and resuspended in the same buffer.
Competition binding experiments were performed in duplicates using these whole cells. […] The final volume in each tube was 0.25 mL. Nonspecific binding (5-30%) was determined in the presence of 1 μM (±)-propranolol. Incubations were carried out for 60 min at 37° C. Binding reactions were terminated by rapid filtration through Whatman GF/B glass fiber filters on a Brandel model 12-R tissue harvester. Filters were washed twice with ice cold Tris-EDTA buffer to remove free ICYP. The filters were dried under tissue harvester vacuum and radioactivity was measured by gamma scintillation spectrometry (Beckman model 8000 gamma counter, Palo Alto, Calif.). Specific binding to β Adrenoreceptor sites in these cells varied from 94 to 100%
Inhibitory concentration-50 (IC50) value of each competing drug was determined graphically from individual plots of percent radioligand bound versus log drug concentration on O-adrenoceptors and human platelets. […] Dissociation constants (Ki) for each competing drug were calculated using the equation: [formula] and the data expressed as pKi (i.e., −log Ki) values.

[6] = biological target: Human β3-AR (Homo sapiens, UniProt P13945); test: cAMP radioimmunoassay (cAMP-RIA), CHO cells expressing human β3-AR; type: cell-based; parameters: expressed in transfected cells; settings: for I.A., Human β3-AR, cAMP-RIA assay: percentage of maximal response of R-(−)-isoproterenol (100%)
Method: as §1

[7] = biological target: T4, Thromboxane A2/Prostaglandin H2 (TP) receptor (Homo sapiens, UniProt P21731); test: Radioligand competition binding, TP receptor sites in human platelets ([3H]SQ 29,548); settings: for pKi ± SEM, Human TP receptors: [3H]SQ 29,548 as radioligand, platelets, N = 4-9; for P.R. (potency ratio), Human TP receptors: relative to cmpd. 1 (TMQ), PR = antilog [pKi(drug) − pKi(TMQ)]
T4 construct: endogenous in cells; host or cells: human platelets (from platelet rich plasma)
T4 sequence (P21731 1-343): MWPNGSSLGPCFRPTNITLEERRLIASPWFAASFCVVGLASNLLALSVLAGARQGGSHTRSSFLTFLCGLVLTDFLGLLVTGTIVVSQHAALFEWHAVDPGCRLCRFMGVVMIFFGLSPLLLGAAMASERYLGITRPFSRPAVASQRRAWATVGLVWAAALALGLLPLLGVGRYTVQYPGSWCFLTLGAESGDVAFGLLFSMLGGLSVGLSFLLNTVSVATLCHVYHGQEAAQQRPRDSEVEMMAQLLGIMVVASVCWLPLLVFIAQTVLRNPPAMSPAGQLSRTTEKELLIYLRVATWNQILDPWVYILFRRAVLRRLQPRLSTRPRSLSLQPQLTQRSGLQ
Method: For binding experiments, human platelet rich plasma (PRP) was centrifuged and re-suspended in 50 mM Tris-saline buffer, pH 7.4. […] Filters were placed in plastic scintillation vials containing 10 mL of an emulsion-type scintillation mixture and radioactivity measured by liquid scintillation spectrometry.

[8] = biological target: T5, rat-β3-AR (Rattus norvegicus, UniProt P26255); test: cAMP accumulation in CHO cells expressing rat β3-AR; type: cell-based; settings: for EC50: read-out: pKact (−log EC50) for cAMP accumulation, rat-β3-AR (converted); for Emax: read-out: Emax, maximal cAMP accumulation
T5 construct: expressed in transfected cells; host or cells: CHO cells
Method: as §1

[9] = biological target: T5, rat-β3-AR; test: Binding in CHO cells expressing rat β3-AR; settings: mean ± SEM (n in parentheses), read-out: pKi (−log Ki) for binding, rat-β3-AR (converted)
[10] = biological target: β2-AR (Rattus norvegicus, UniProt P10608); test: Relaxation of carbachol-precontracted isolated rat tracheal strips; settings: for I.A. (intrinsic activity), Trachea: maximal response relative to maximal response of (−)-isoproterenol
Method: (§2) Male Sprague Dawley rats (Harlan Industries, Cumberland, Ind.) housed under a 12 hour light/dark cycle and fed Purina Rodent Laboratory Chow (Ralston Purina., St. Louis, Mo.) and water ad libitum, were used for the studies. […] All tissues were suspended and equilibrated in modified Kreb's buffer in water-jacketed baths at 37° C. Resting tensions of 1 g for right atria, trachea and aorta, and of 200 mg for esophageal smooth muscle were used. All tissue responses were measured on a Grass Polygraph Model 7C with a Grass FT-03C isometric force-displacement transducer.
(§3) Carbachol-precontracted tissues were included as controls through the duration of relaxation studies.

[11] = biological target: Atypical-β/β3-AR (Rattus norvegicus, UniProt P26255); test: Relaxation of carbachol-precontracted rat esophageal smooth muscle; settings: for I.A. (intrinsic activity), Esophageal Smooth Muscle (Atypical-β/β3-AR): maximal response relative to maximal response of (−)-isoproterenol
Method: as §2, §3

[12] = biological target: β1-AR (Rattus norvegicus, UniProt P18090); test: Chronotropic responses of spontaneously beating isolated rat right atria
Method: as §2
The tissue was again washed 6-7 times with 10 ml of buffer, followed by repeated washes every 10-15 min.

[13] = CHO cells, [125I]ICYP, N = 3-9 (Table 5)
[14] = CHO cells, mean ± SEM (n in parentheses)
[15] = relative to that of (−)-isoproterenol, CHO cells expressing rat-β3-AR

Sequence of Human β3-AR (P13945 whole entry): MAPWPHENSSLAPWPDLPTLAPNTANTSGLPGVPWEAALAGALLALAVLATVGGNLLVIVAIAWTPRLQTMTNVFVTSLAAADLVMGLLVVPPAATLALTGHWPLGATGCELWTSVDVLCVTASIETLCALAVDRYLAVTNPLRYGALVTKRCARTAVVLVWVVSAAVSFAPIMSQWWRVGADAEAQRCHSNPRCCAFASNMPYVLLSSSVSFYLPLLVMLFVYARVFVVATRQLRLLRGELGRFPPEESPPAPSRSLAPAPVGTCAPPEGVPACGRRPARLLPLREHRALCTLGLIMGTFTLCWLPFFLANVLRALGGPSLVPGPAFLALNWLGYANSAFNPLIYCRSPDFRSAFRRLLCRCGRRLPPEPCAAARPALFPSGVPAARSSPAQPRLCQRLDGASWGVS
T1 sequence (P13945 whole entry): as above
T3 sequence (P07550 whole entry): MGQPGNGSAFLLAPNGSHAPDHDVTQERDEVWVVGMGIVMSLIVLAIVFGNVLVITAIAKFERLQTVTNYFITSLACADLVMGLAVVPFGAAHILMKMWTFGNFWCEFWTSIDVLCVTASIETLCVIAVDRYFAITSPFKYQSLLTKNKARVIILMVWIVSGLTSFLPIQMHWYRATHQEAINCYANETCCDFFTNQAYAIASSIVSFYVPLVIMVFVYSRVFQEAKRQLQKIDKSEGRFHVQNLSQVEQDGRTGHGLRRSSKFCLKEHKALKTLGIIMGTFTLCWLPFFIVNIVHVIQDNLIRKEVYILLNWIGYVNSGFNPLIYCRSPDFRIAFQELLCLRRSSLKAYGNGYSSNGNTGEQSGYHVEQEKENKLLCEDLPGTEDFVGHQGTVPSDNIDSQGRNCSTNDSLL
Sequence of β2-AR (P10608 whole entry): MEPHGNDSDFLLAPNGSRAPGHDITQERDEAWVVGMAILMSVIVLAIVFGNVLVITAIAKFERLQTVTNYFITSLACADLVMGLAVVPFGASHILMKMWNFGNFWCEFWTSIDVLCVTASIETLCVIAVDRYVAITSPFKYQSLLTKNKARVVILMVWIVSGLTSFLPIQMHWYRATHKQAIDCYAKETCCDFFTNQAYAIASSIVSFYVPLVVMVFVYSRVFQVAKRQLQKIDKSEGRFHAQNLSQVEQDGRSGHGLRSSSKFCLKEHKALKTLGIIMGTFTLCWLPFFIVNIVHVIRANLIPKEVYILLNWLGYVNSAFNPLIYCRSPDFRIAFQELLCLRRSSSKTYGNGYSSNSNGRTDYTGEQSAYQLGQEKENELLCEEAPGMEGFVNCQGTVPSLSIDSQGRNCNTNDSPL
T5 sequence (P26255 whole entry): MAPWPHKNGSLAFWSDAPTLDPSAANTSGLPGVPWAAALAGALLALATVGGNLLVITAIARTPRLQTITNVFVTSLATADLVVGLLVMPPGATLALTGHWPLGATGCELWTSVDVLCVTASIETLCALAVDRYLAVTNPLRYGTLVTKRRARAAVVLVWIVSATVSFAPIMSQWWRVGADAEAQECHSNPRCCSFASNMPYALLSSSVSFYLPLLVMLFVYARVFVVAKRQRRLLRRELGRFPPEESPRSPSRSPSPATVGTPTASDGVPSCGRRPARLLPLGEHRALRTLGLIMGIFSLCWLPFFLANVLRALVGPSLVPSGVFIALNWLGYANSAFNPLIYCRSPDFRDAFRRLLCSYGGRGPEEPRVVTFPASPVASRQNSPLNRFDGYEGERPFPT
Sequence of Atypical-β/β3-AR (P26255 whole entry): as above
Sequence of β1-AR (P18090 whole entry): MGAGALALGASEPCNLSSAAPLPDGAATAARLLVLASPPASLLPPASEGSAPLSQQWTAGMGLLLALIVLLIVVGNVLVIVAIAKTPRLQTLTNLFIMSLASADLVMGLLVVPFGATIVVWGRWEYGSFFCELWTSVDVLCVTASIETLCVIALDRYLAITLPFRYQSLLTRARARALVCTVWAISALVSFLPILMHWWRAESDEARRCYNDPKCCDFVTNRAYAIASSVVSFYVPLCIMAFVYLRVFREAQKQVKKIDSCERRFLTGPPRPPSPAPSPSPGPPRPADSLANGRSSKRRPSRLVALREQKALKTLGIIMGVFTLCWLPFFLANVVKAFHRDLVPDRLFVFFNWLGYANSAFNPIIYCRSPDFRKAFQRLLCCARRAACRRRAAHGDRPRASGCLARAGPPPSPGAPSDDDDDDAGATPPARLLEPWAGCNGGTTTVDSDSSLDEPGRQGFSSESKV
Sequence of human β1 Adrenoreceptor (P08588 whole entry): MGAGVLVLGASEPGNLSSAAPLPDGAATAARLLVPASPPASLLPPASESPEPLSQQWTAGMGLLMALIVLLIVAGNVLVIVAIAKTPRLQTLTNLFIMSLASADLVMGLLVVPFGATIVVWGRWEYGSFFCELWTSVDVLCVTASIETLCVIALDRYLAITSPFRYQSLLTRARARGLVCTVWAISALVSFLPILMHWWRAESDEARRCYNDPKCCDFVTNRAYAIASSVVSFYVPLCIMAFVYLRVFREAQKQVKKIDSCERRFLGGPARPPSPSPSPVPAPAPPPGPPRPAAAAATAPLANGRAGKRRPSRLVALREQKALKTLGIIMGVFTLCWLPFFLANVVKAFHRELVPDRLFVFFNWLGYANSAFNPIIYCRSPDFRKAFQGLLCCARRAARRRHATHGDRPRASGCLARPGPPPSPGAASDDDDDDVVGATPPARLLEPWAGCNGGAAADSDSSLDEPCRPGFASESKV
Sequence of Human β1-AR (P08588 whole entry): as above
T2 sequence (P13945 whole entry): as the sequence (P13945 whole entry) above

SMILES: COc1cc(CC2NCCc3cc(O)c(O)cc32)cc(OC)c1OC (stereo not drawn)
- EC50 [1]: < 1 nM

SMILES: COc1cc(CC2NCCc3nc(N)sc32)cc(OC)c1OC.Cl.Cl (stereo not drawn) [7 (B-29), 2-Amino-4-(3′,4′,5′-trimethoxyphenylmethyl)-4,5,6,7-tetrahydro-thiazolo[5,4-c]pyridine Dihydrochloride]
- pKi ± SEM, Human β3-AR [2]: 4.17 ± 0.05
- pKi ± SEM, Human β2-AR [3, 13]: 6.21 ± 0.12
- I.A. ± SEM, Human β1-AR, cAMP-RIA assay [4]: <10%
- pKi ± SEM, Human β1-AR [5, 13]: 5.21 ± 0.08
- EC50 ([6]; CHO cells, N.A. = Not active at 100 μM, N = 4-12, read-out: pKact ± SEM, Human β3-AR, cAMP-RIA assay (converted)): 8710 nM
- I.A., Human β3-AR, cAMP-RIA assay [6]: 54 ± 1%

SMILES: CC(=O)Nc1ccc(CC2NCCc3cc(O)c(O)cc32)cc1I.I (stereo not drawn) [Compound 26a, 1-(4-Acetamido-3-iodobenzyl)-6,7-dihydroxy-1,2,3,4-tetrahydroisoquinoline Hydroiodide]
- fold decrease in TP receptor binding affinity on removal of one iodine (24 vs 21c, 26a vs 15) [7]: 5 fold
- pKi ± SEM, Human TP receptors [7]: 5.83
- P.R. (potency ratio), Human TP receptors [7]: 0.11
- pKi ± SEM, Human β2 Adrenoreceptor CHO [3]: 8.11
- P.R. (potency ratio), Human β2 Adrenoreceptor CHO [3]: 5.6

SMILES: CC(C)NC[C@H](O)c1ccc(O)c(O)c1 (single isomer, unassigned) [(−)Isoproterenol, isoproterenol, reference compound]
- Emax ([8]; CHO): 100%
- I.A. (intrinsic activity), Trachea [10]: 1.00
- I.A. (intrinsic activity), Esophageal Smooth Muscle (Atypical-β/β3-AR) [11]: 1.00
- I.A., Human β3-AR, cAMP-RIA assay [6]: 100%

SMILES: COc1c(I)cc(CC2NCCc3nc(NC(C)=O)sc32)cc1I.O=C(O)/C=C\C(=O)O (stereo not drawn) [Compound 10]
- I.A. ± SEM, Human β1-AR, cAMP-RIA assay [4]: <10%
- I.A., Human β3-AR, cAMP-RIA assay [6]: <10%

SMILES: Br.CC(=O)Nc1c(I)cc(CC2NCCc3cc(O)c(O)cc32)cc1I (stereo not drawn) [Compound 15, 1-(4-Acetamido-3,5-diiodobenzyl)-6,7-dihydroxy-1,2,3,4-tetrahydroisoquinoline Hydrobromide]
- EC50 [8, 14]: 0.457 nM
- Emax [8, 15]: 89.6 ± 6.93%
- pKi ± SEM, Human TP receptors [7]: 6.45
- Ki [9]: 52.5 nM
- pKi ± SEM, Human β2 Adrenoreceptor CHO [3]: 8.06
- EC50 [12]: 1.1 nM
- I.A. (intrinsic activity), Right Atria (β-AR) ([12]; maximal response relative to maximal response of (−)-isoproterenol): 0.93 ± 0.04
- EC50 [10]: 0.603 nM
- I.A. (intrinsic activity), Trachea [10]: 0.84 ± 0.02
- EC50 [11]: 2.09 nM
- I.A. (intrinsic activity), Esophageal Smooth Muscle (Atypical-β/β3-AR) [11]: 0.99 ± 0.03

SMILES: COc1cc2c(cc1OC)C(Cc1cc(OC)c(OC)c(OC)c1)NCC2 (stereo not drawn) [6,7-Dimethoxy TMQ, reference compound]
- pKact (−log EC50) for cAMP accumulation, rat-β3-AR [8, 14]: no activity upto 3 × 10^−5 M
- Ki [9]: 132000 nM

SMILES: Br.Oc1cc2c(cc1O)C(Cc1cc(I)c(I)c(I)c1)NCC2 (stereo not drawn) [Compound 21b, 6,7-Dihydroxy-1-(3,4,5-triiodobenzyl)-1,2,3,4-tetrahydroisoquinoline Hydrobromide]
- pKi ± SEM, Human TP receptors [7]: 4.22
- P.R. (potency ratio), Human TP receptors [7]: 0.003
- pKi ± SEM, Human β2 Adrenoreceptor CHO [3]: 8.82
- P.R. (potency ratio), Human β2 Adrenoreceptor CHO [3]: 29

Now from value to compound:

- EC50 [8, 14]: 0.398 nM
- Emax [8, 15]: 96.9 ± 10.1%
- pKi ± SEM, Human TP receptors [7]: 7.33
- Ki [9]: 457 nM
SMILES: COc1c(I)cc(CC2NCCc3cc(O)c(O)cc32)cc1I (stereo not drawn) [Compound 2, reference compound]

- fold reduction in TP receptor binding affinity compared to 2 [7]: 3 fold
- pKi ± SEM, Human TP receptors [7]: 6.73
- P.R. (potency ratio), Human TP receptors [7]: 0.87
- Ki [9]: 724 nM
- pKi ± SEM, Human β2 Adrenoreceptor CHO [3]: 8.81
- P.R. (potency ratio), Human β2 Adrenoreceptor CHO [3]: 28
SMILES: Cl.Cl.Nc1c(I)cc(CC2NCCc3cc(O)c(O)cc32)cc1I (stereo not drawn) [Compound 21c, 1-(4-Amino-3,5-diiodobenzyl)-6,7-dihydroxy-1,2,3,4-tetrahydroisoquinoline Dihydrochloride]

- Ki [3]: 47 nM
- hβ3 cAMP % Iso +/−SEM [1]: 89 +/− 5 % Iso
- EC50 [1]: 33.5 nM
- Ki [5]: 278 nM
SMILES: COc1c(I)cc(CC2NCCc3cc(O)ccc32)cc1I (stereo not drawn) [drawing 83]

- Ki [3]: 3.1 nM
- EC50 [1]: < 4 nM
SMILES: COc1c(I)cc(CC2NCCc3cc(O)c(O)cc32)cc1I (stereo not drawn) [drawing 80]
